In patent publication US8026410B2 (priority 2003, dated 2011):

Assays:
[1] = test system: Tobacco seeds germinated on MS medium containing DAS; parameters: species or system Nicotiana tabacum; settings: in vivo
wheat = settings: in vivo; cited from earlier work
[2] = test system: Tobacco seeds germinated on MS medium containing DON; parameters: species or system Nicotiana tabacum; settings: in vivo
[3] = test system: Phytophthora infestans, Colletotrichum coccodes, fusarium solani, fusarium sulphureum, Phoma foreata and Rhizoctonia solani; settings: cited from earlier work
[4] = test system: transgenic tobacco plants; settings: in vivo; cited from earlier work

With 4,15-diacetoxyscirpenol [DAS] the “lowest concentration that would give the best inhibition of wild type tobacco seed growth” value [1] was 1 µM.

In the case of `CC1=C[C@H]2O[C@@H]3[C@H](O)C[C@](C)([C@@]2(CO)[C@H](O)C1=O)[C@]31CO1` [DON, Deoxynivalenol], the inhibition toward wheat (wheat) is listed as “far more inhibitory than DAS” and the “lowest concentration that would give the best inhibition of wild type tobacco seed growth” value [2] is listed as 10 µM.

B1: PAP: 29-kDa ribosome inactivating protein (protein)
chain: VNTIIYNVGSTTISKYATFLNDLRNEAKDPSLKCYGIPMLPNTNTNPKYVLVELQGSNKKTITLMLRRNNLYVMGYSDPFETNKCRYHIFNDISGTERQDVETTLCPNANSRVSKNINFDSRYPTLESKAGVKSRSQVQLGIQILDSNIGKISGVMSFTEKTEAEFLLVAIQMVSEAARFKYIENQVKTNFNRAFNPNPKVLNLQETWGKISTAIHDAKNGVLPKPLELVDASGAKWIVLRVDEIKPDVALLNYVGGSCQTTY
In the case of B1, the “effect on growth of fungi in vitro” value [3] is listed as “no effect on the growth” and the “phenotype of PAP-expressing tobacco plants” value [4] is listed as “stunted, mottled phenotype”.
